{"source": "patent US20070161652A1", "about": "“Fungicidal mixtures” (BASF Aktiengesellschaft, priority 2004, published 2007)", "system": "Plasmopara viticola", "test": "activity against peronospora of grapevines caused by Plasmopara viticola (protective spray test on potted vines)", "type": "in vivo, Plasmopara viticola on vines of the cultivar \"Riesling\"", "details": "individual active compound, untreated control 92% infection", "description": "The active compounds, separately or jointly, were prepared as a stock solution comprising 0.25% by weight of active compound in acetone or DMSO. 1% by weight of the emulsifier Uniperol® EL (wetting agent having emulsifying and dispersant action based on ethoxylated alkylphenols) was added to this solution, and the mixture was diluted with water to the desired concentration.\nUse example—activity against peronospora of grapevines caused by Plasmopara viticola Leaves of potted vines of the cultivar “Riesling” were sprayed to runoff point with an aqueous suspension having the concentration of active compound stated below. The next day, the undersides of the leaves were inoculated with an aqueous zoospore suspension of Plasmopara viticola. The grapevines were then initially placed in a water-vapor-saturated chamber at 24° C. for 48 hours and then in a greenhouse at 20-30° C. for 5 days. After this period of time, the plants were again placed in a humid chamber for 16 hours to promote sporangiophore eruption. The extent of the development of the disease on the undersides of the leaves was then determined visually.\nThe visually determined percentages of infected leaf areas were converted into efficacies in % of the untreated control:\nThe efficacy (E) is calculated as follows using Abbot's formula: E=(1−[…] )·100 α corresponds to the fungicidal infection of the treated plants in % and β corresponds to the fungicidal infection of the untreated (control) plants in % An efficacy of 0 means that the infection level of the treated plants corresponds to that of the untreated control plants; an efficacy of 100 means that the treated plants were not infected.\nThe expected efficacies of mixtures of active compounds were determined using Colby's formula (Colby, S. R. “Calculating synergistic and antagonistic responses of herbicide combinations”, Weeds, 15, 20-22, 1967) and compared with the observed efficacies.\nColby's formula: E=x+y−x·y/100\nE expected efficacy, expressed in % of the untreated control, when using the mixture of the active compounds A and B at the concentrations a and b x efficacy, expressed in % of the untreated control, when using the active compound A at the concentration a y efficacy, expressed in % of the untreated control, when using the active compound B at the concentration b"}
{"smiles": "CC1CCN(c2c(-c3c(F)cc(F)cc3F)c(Cl)nc3ncnn23)CC1", "note": "[compound I, 5-chloro-7-(4-methylpiperidin-1-yl)-6-(2,4,6-trifluorophenyl)-[1,2,4]triazolo[1,5-a]pyrimidine]", "values": [{"measurement": "Efficacy in % of the untreated control", "setting": "16 ppm in the spray liquor", "result": 56, "unit": "%"}]}
{"smiles": "OC(c1ccc(Cl)cc1)(c1cncnc1)c1ccccc1Cl", "note": "(stereo not shown) [compound II, (4-chlorophenyl)(2-chlorophenyl)pyrimidin-5-ylmethanol]", "values": [{"measurement": "Efficacy in % of the untreated control", "setting": "4 ppm in the spray liquor", "result": 2, "unit": "%"}, {"measurement": "Efficacy in % of the untreated control", "setting": "16 ppm in the spray liquor", "result": 2, "unit": "%"}, {"measurement": "Efficacy in % of the untreated control", "setting": "63 ppm in the spray liquor", "result": 2, "unit": "%"}]}
